Test results reported in PubChem BioAssay AID330 (DTP/NCI, 2004).
Where “and” joins values, the source holds several entries; their conditions need not be identical. Identical values can stand only once. Toxic doses and inconclusive results are not listed. Rule for the calls: active = survival T/C of 150% or more; inactive = T/C below 125% in these data.

System: P388 leukemia ip, CD2F1 mice, survival T/C
Assay: NCI In Vivo Anticancer Drug Screen. Data for tumor model P388 Leukemia (intraperitoneal) in CD2F1 (CDF1) mice
Settings: endpoint: median survival time, higher = longer survival
Summary of the method: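 Mice carrying the transplanted tumor received test compound or vehicle. Survival was recorded in each group, and the value is the treated-group measurement divided by that of the vehicle-treated control group.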

[1] = dose: 50.0 mg/kg/injection, schedule: Q01DX005 (ip), vehicle: Klucel (hydroxypropylcellulose) (HPC)
[2] = dose: 100.0 mg/kg/injection, schedule: Q01DX005 (ip), vehicle: Klucel (hydroxypropylcellulose) (HPC)
[3] = dose: 60.0 mg/kg/injection, schedule: Q01DX005 (ip), vehicle: saline
[4] = dose: 120.0 mg/kg/injection, schedule: Q01DX005 (ip), vehicle: saline
[5] = dose: 50.0 mg/kg/injection, schedule: Q01DX009 (ip), vehicle: saline with Tween-80
[6] = dose: 100.0 mg/kg/injection, schedule: Q01DX009 (ip), vehicle: saline with Tween-80
[7] = dose: 200.0 mg/kg/injection, schedule: Q01DX009 (ip), vehicle: saline with Tween-80
[8] = dose: 60.0 mg/kg/injection, schedule: Q01DX005 (ip), vehicle: Klucel (hydroxypropylcellulose) (HPC)
[9] = dose: 120.0 mg/kg/injection, schedule: Q01DX005 (ip), vehicle: Klucel (hydroxypropylcellulose) (HPC)
[10] = dose: 240.0 mg/kg/injection, schedule: Q01DX005 (ip), vehicle: Klucel (hydroxypropylcellulose) (HPC)
[11] = dose: 25.0 mg/kg/injection, schedule: Q01DX009 (ip), vehicle: saline with Tween-80
[12] = dose: 60.0 mg/kg/injection, schedule: Q01DX005 (ip), vehicle: saline with Tween-80
[13] = dose: 120.0 mg/kg/injection, schedule: Q01DX005 (ip), vehicle: saline with Tween-80
[14] = dose: 240.0 mg/kg/injection, schedule: Q01DX005 (ip), vehicle: saline with Tween-80
[15] = dose: 50.0 mg/kg/injection, schedule: Q01DX005 (ip), vehicle: saline with Tween-80
[16] = dose: 100.0 mg/kg/injection, schedule: Q01DX005 (ip), vehicle: saline with Tween-80
[17] = dose: 200.0 mg/kg/injection, schedule: Q01DX005 (ip), vehicle: saline with Tween-80
[18] = dose: 12.5 mg/kg/injection, schedule: Q01DX009 (ip), vehicle: saline with Tween-80
[19] = dose: 200.0 mg/kg/injection, schedule: Q01DX005 (ip), vehicle: Klucel (hydroxypropylcellulose) (HPC)
[20] = dose: 100.0 mg/kg/injection, schedule: Q04DX003 (ip), vehicle: saline with Tween-80
[21] = dose: 200.0 mg/kg/injection, schedule: Q04DX003 (ip), vehicle: saline with Tween-80
[22] = dose: 50.0 mg/kg/injection, schedule: Q01DX009 (ip), vehicle: Klucel (hydroxypropylcellulose) (HPC)
[23] = dose: 100.0 mg/kg/injection, schedule: Q01DX009 (ip), vehicle: Klucel (hydroxypropylcellulose) (HPC)
[24] = dose: 200.0 mg/kg/injection, schedule: Q01DX009 (ip), vehicle: Klucel (hydroxypropylcellulose) (HPC)

Measured: T/C

Oc1ccccc1-c1cc(-c2ccccc2)nc(NCCCCCCNc2nc(-c3ccccc3)cc(-c3ccccc3O)n2)n1
inactive: [1] 90 % of control | [2] 90 % of control

Cc1oc2ccccc2c(=O)c1CN1CCOCC1
inactive: [3] 101 % of control | [4] 103 % of control

NNc1nn2cnnc2c2ccccc12
inactive: dose: 6.25 mg/kg/injection, schedule: Q04DX002 (ip), vehicle: saline 100 % of control and 96 % of control | dose: 12.5 mg/kg/injection, schedule: Q04DX002 (ip), vehicle: saline 98 % of control and 99 % of control and 96 % of control | dose: 25.0 mg/kg/injection, schedule: Q04DX002 (ip), vehicle: saline 100 % of control and 122 % of control and 97 % of control | dose: 50.0 mg/kg/injection, schedule: Q04DX002 (ip), vehicle: saline 101 % of control and 104 % of control and 94 % of control | dose: 400.0 mg/kg/injection, schedule: Q04DX002 (ip), vehicle: saline 88 % of control

O=C(c1ccccc1)N1c2ccccc2N(C(=O)c2ccccc2)C1c1nc2ccccc2n1C(=O)c1ccccc1
inactive: [5] 109 % of control | [6] 100 % of control | [7] 102 % of control

[O-][N+](CCO)(CCO)c1ncnc2nc[nH]c12
inactive: dose: 50.0 mg/kg/injection, schedule: Q01DX005 (ip), vehicle: suspension in saline 102 % of control | dose: 100.0 mg/kg/injection, schedule: Q01DX005 (ip), vehicle: suspension in saline 106 % of control | dose: 200.0 mg/kg/injection, schedule: Q01DX005 (ip), vehicle: suspension in saline 102 % of control

CCOC(=O)c1ccc(NC(=S)NC(=O)c2ccco2)o1
inactive: [5] 92 % of control | [6] 100 % of control | [7] 92 % of control

CCc1ncc(C(C)(O)c2ccc(C)cc2)n1Cc1ccccc1 (configuration not stated)
inactive: [8] 90 % of control | [9] 86 % of control | [10] 86 % of control

Cn1cc(NC(=O)c2cc(NC(=O)c3cc(NC=O)cn3C)cn2C)cc1C(=O)O
inactive: dose: 12.5 mg/kg/injection, schedule: Q01DX005 (ip), vehicle: Klucel (hydroxypropylcellulose) (HPC) 100 % of control | dose: 25.0 mg/kg/injection, schedule: Q01DX005 (ip), vehicle: Klucel (hydroxypropylcellulose) (HPC) 100 % of control | [1] 107 % of control

C=CCNCCC1CCCCCC1
inactive: [1] 102 % of control

Cc1ccc(Nc2cccc3c2C(=O)c2cccc(Nc4ccc(C)cc4S(=O)(=O)O)c2C3=O)c(S(=O)(=O)O)c1
inactive: [5] 108 % of control | [6] 100 % of control | [7] 101 % of control

CCOC(=O)C(CCl)C(C(=O)OCC)C(=O)OCC (configuration not stated)
inactive: [11] 117 % of control | [5] 110 % of control | [6] 112 % of control

CC1=CN(C(=O)c2ccccc2)C(C#N)N(C(=O)c2ccccc2)C1C#N (configuration not stated)
inactive: [8] 100 % of control | [9] 103 % of control | [10] 102 % of control

N#CCc1ccccc1C(C#N)C(=O)CCC(=O)C(C#N)c1ccccc1CC#N (configuration not stated)
inactive: [12] 104 % of control | [13] 103 % of control | [14] 102 % of control

Oc1ccccc1N=Cc1ccc2c(c1)OCO2
inactive: dose: 25.0 mg/kg/injection, schedule: Q01DX005 (ip), vehicle: saline with Tween-80 103 % of control | [15] 110 % of control | [16] 104 % of control | [17] 110 % of control

Cc1cc[n+](-c2nc3c([O-])n(C)c(=O)n(C)c-3n2)cc1
inactive: dose: 100.0 mg/kg/injection, schedule: Q04DX003 (ip), vehicle: saline 99 % of control | dose: 200.0 mg/kg/injection, schedule: Q04DX003 (ip), vehicle: saline 99 % of control | dose: 400.0 mg/kg/injection, schedule: Q04DX003 (ip), vehicle: saline 94 % of control

CC(NNC(=S)N1CCN(c2ccccn2)CC1)c1cc2ccccc2cn1 (configuration not stated)
inactive: dose: 12.5 mg/kg/injection, schedule: Q04DX003 (ip), vehicle: Klucel (hydroxypropylcellulose) (HPC) 96 % of control | dose: 25.0 mg/kg/injection, schedule: Q04DX003 (ip), vehicle: Klucel (hydroxypropylcellulose) (HPC) 88 % of control | dose: 50.0 mg/kg/injection, schedule: Q04DX003 (ip), vehicle: Klucel (hydroxypropylcellulose) (HPC) 88 % of control | dose: 400.0 mg/kg/injection, schedule: Q04DX003 (ip), vehicle: Klucel (hydroxypropylcellulose) (HPC) 86 % of control

CC(C)C1CCC(C)C1C(N)=O (configuration not stated)
inactive: dose: 100.0 mg/kg/injection, schedule: Q04DX002 (ip), vehicle: saline with Tween-80 103 % of control | dose: 200.0 mg/kg/injection, schedule: Q04DX002 (ip), vehicle: saline with Tween-80 99 % of control | dose: 400.0 mg/kg/injection, schedule: Q04DX002 (ip), vehicle: saline with Tween-80 99 % of control

Nc1ccc2c3c(cccc13)C(=O)N(CCCBr)C2=O
inactive: [12] 103 % of control | [13] 113 % of control | [14] 107 % of control

COC(=O)C1(CC(=O)c2ccc(OC)cc2)NC(=S)NC(=O)C1C#N (configuration not stated)
inactive: [3] 100 % of control | [4] 98 % of control | dose: 240.0 mg/kg/injection, schedule: Q01DX005 (ip), vehicle: saline 86 % of control

CCCCCCC[n+]1cccc(C(=O)N2CCOCC2)c1
inactive: [18] 104 % of control | [11] 98 % of control | [5] 100 % of control

CC(=O)N/C(=C/c1ccccc1)C(=O)N/C(=C/c1ccccc1)C(=O)O
inactive: [1] 101 % of control | [2] 99 % of control | [19] 91 % of control

CC1=C(/C=C/C(C)=C/C=C/C(C)=C/CO)C(C)(C)CCC1
inactive: [15] 98 % of control | [16] 94 % of control | [20] 100 % of control | [17] 116 % of control | [21] 100 % of control

C=C(C)C(=O)N/C(N)=N\C(N)=O
inactive: dose: 50.0 mg/kg/injection, schedule: Q01DX005 (ip), vehicle: saline 98 % of control | dose: 100.0 mg/kg/injection, schedule: Q01DX005 (ip), vehicle: saline 101 % of control | dose: 200.0 mg/kg/injection, schedule: Q01DX005 (ip), vehicle: saline 112 % of control

CC1=C(O)c2ccccc2C(=O)C1=O
inactive: [18] 101 % of control | [11] 113 % of control and 90 % of control | [5] 105 % of control and 116 % of control | [6] 92 % of control | [7] 90 % of control

Clc1ccc(CNc2ncnc3[nH]ncc23)c(Cl)c1
inactive: [20] 100 % of control | [21] 100 % of control

CCOC(=O)/C=C/c1c[nH]c(=O)[nH]c1=O
inactive: dose: 12.5 mg/kg/injection, schedule: Q01DX009 (ip), vehicle: distilled water + Tween-80 100 % of control | dose: 25.0 mg/kg/injection, schedule: Q01DX009 (ip), vehicle: distilled water + Tween-80 96 % of control | dose: 50.0 mg/kg/injection, schedule: Q01DX009 (ip), vehicle: distilled water + Tween-80 92 % of control | dose: 100.0 mg/kg/injection, schedule: Q01DX009 (ip), vehicle: distilled water + Tween-80 88 % of control

Cc1cc2c(=O)[nH]cnc2n1C1C(O)CCCC1O (configuration not stated)
inactive: [1] 106 % of control | [2] 104 % of control | [19] 107 % of control

O=[N+]([O-])c1ccc(N=NN2CCOC2)cc1
inactive: [15] 99 % of control | [16] 103 % of control | [17] 105 % of control

CCOC(=O)/C=C(\C)NCCSSCCN/C(C)=C/C(=O)OCC
inactive: [22] 100 % of control | [23] 97 % of control | [24] 90 % of control

C1CN2CCN1CC2
inactive: dose: 50.0 mg/kg/injection, schedule: Q01DX009 (ip), vehicle: saline 99 % of control and 105 % of control | dose: 100.0 mg/kg/injection, schedule: Q01DX009 (ip), vehicle: saline 94 % of control and 108 % of control | dose: 200.0 mg/kg/injection, schedule: Q01DX009 (ip), vehicle: saline 103 % of control and 99 % of control

COc1cc2c(c(OC)c1OC)CCCC2=O
inactive: [22] 111 % of control | [23] 113 % of control | [24] 117 % of control
